Test results from patent US20250223301A1, “KINASE INHIBITORS, PREPARATION METHODS AND USES THEREOF” (InventisBio Co., Ltd., priority 2022, published 2025).

Experiments:
[1] = system: CT26 murine colorectal adenocarcinoma cells; test: In vivo efficacy in CT26 syngeneic mouse tumor model; conditions: CT26, BALB/c mice; 3 mg/kg PO QD
Description: Murine colorectal adenocarcinoma cells CT26 (purchased from ATCC) were cultured in RPMI 1640 medium with 10% FBS. For tumor implantation, 6-8 weeks old BALB/c female mice (Beijing Vital River Laboratory Animal Technology Co., Ltd.) were given a subcutaneous injection of CT26 cell (1×10^7 cells/mL) in 0.1 mL suspension into the right flank. Once tumors grew to a volume of 50-100 mm3, mice were randomized into different groups and treatment was initiated. Mice were treated orally once per day (PO, QD) with DGK inhibitors (3 mg/kg) or vehicle control. Anti-PD-1 antibody (BioXcell, Cat #BE0273), anti-CTLA4 antibody (BioXcell, Cat #BE0164) were diluted with PBS for dosing at 10 mg/kg or 5 mg/kg, respectively. Antibody was administrated via intraperitoneal injection, twice per week. Tumor volume and body weight of mice were recorded twice per week.
All animals were housed in a room maintained at 23:3° C., 65%-75% humidity, with a controlled 12 h light-dark cycle for 5-7 days before experiments. Water and commercial laboratory complete food for mice were provided in the cage.

Jurkat cells = test: Jurkat IL-2 assay; assay type: cell-based; conditions: Homo sapiens, anti-CD3/CD28 stimulation overnight, IL-2 level
How it was run: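 Cells in RPMI-1640 with 10% FBS received compound solution (5 uM to 2.3 nM, 8 points, 3-fold dilution) for 60 minutes at 37° C. They were then stimulated overnight at 37° C. with anti-CD3/CD28 antibody. IL-2 in the supernatant was quantified by immunoassay kit and plotted against log compound concentration.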

[2] = system: whole blood from male C57BL6 mice; test: Mouse whole blood IFN-gamma assay; assay type: cell-based; conditions: anti-mouse CD3/CD28 0.6 ug/mL, 20 hours
Description: The whole blood from male C57BL6 mice (6-8 weeks old, Beijing Vital River Laboratory Animal Technology Co., Ltd.) was collected, pooled and dispensed at 200 uL per well in a 96-well plate. The blood was treated with compounds for one hour at 37° C. in a humidified 5% CO2 incubator. The blood was then stimulated with anti-mouse CD3 and anti-mouse CD28 antibody (BioLegend Cat #100340, #102116) at a final concentration of 0.6 ug/mL for 20 hours at 37° C. in a humidified 5% CO2 incubator. The blood was spun down, IFN-gamma in the supernatants was measured using ELISA kit (Excellbio Cat #EM002-96, #EM007-96) according the manufacture's instruction.

PBMC = test: Human PBMC IL-2 assay; assay type: cell-based; conditions: anti-CD3/CD28 stimulation overnight, IL-2 level
How it was run: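 Healthy-donor frozen PBMC were thawed, rested 4 h at 37 °C and plated at ~200,000 cells/well. Cells were preincubated 60 min at 37 °C with compound solution (10 uM to 0.6 nM, 8 points, 4-fold, as added), then stimulated overnight with anti-CD3/CD28. Supernatant IL-2 was quantified by immunoassay kit and plotted against log compound concentration.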

[3] = Human microsomal clearance assay; assay type: in vitro ADME; conditions: pH 7.4; for CLint scaled at 1 μM: human, liver microsomes; for half-life at 1 μM: human liver microsomes 0.5 mg/mL, 1 uM compound
Description: This study aimed to assess the metabolic stability of a compound in human liver microsomes using a microsomal clearance assay.
A mixture containing 100 mM potassium phosphate, pH 7.4, 0.5 mg/mL liver microsomes, 2 mM NADPH, and 1 μM compound were prepared and added to 96-well plate. The plates were then incubated at 37 ? for different time points (0, 5, 15, 30, 45 minutes) and the reaction was stopped with acetonitrile solution containing an internal standard. The samples were then analyzed by LC/MS/MS to determine how much of the compound remained at each time point. The elimination rate constant and half-life were calculated from the data, and the in vitro intrinsic clearance (CLint) was determined as follows: […]

DGKa = DGKa (Homo sapiens (Human), UniProt P23743); test: biochemical;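 also: biochemical DGK kinase assay, ADP-Glo luminescence from ADP made by phosphorylating 1,2-dioleoyl-sn-glycerol, 20 min compound preincubation then 40 min reaction at 25 °C, 1% DMSO control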
[4] = system: MC-38 murine colon adenocarcinoma cells; test: In vivo efficacy in MC38 syngeneic mouse tumor model; conditions: MC38, C57BL/6 mice; compound 67 0.6 mg/kg PO QD in combination with anti-PD-1 2 mg/kg i.p. twice per week
Description: Murine colon adenocarcinoma cells MC-38 were obtained from American Type Culture Collection (ATCC) and cultured in RPMI 1640 media containing 10% fetal bovine serum (FBS) at 37° C. in a humidified 5% CO2 incubator. Female C57BL/6 mice (20 2 g, 6-8 weeks old) were purchased from SPF Biotechnology Co., Ltd. (Beijing, China). MC-38 cells were collected from flask and suspended in PBS. Suspension of 1×10^6 cells in 0.1 mL culture media without FBS was injected subcutaneously into animal armpits. Once the tumor reached 100-150 mm^3, the mice were randomized into different groups and treatment was initiated. Mice were treated orally once per day (PO, QD) with compound 67 (0.6 mg/kg) or vehicle control. Anti-PD-1 antibody (BioXcell, Cat #BE0273) was diluted with PBS for dosing at 2 mg/kg and was administrated via intraperitoneal injection, twice per week. Tumor volume and body weight of mice were recorded twice per week.
All animals were housed in a room maintained at 23±3° C., 65%-75% humidity, with a controlled 12 h light-dark cycle for 5-7 days before experiments. Water and commercial laboratory complete food for mice were provided in the cage.
Tumor volume was calculated by measuring two perpendicular diameters using the following formula: (L×W^2)/2, in which L and W refer to the length and width tumor diameter, respectively.

DGKz = DGKz (Homo sapiens (Human), UniProt Q13574); test: DGK ADP-Glo kinase assay (DGKz); assay type: biochemical; conditions: 5 nM DGKz, 15 uM ATP
Description: Luminescence was recorded using an Tecan SPARK microplate reader.

DGKz, sequence (Q13574 whole entry): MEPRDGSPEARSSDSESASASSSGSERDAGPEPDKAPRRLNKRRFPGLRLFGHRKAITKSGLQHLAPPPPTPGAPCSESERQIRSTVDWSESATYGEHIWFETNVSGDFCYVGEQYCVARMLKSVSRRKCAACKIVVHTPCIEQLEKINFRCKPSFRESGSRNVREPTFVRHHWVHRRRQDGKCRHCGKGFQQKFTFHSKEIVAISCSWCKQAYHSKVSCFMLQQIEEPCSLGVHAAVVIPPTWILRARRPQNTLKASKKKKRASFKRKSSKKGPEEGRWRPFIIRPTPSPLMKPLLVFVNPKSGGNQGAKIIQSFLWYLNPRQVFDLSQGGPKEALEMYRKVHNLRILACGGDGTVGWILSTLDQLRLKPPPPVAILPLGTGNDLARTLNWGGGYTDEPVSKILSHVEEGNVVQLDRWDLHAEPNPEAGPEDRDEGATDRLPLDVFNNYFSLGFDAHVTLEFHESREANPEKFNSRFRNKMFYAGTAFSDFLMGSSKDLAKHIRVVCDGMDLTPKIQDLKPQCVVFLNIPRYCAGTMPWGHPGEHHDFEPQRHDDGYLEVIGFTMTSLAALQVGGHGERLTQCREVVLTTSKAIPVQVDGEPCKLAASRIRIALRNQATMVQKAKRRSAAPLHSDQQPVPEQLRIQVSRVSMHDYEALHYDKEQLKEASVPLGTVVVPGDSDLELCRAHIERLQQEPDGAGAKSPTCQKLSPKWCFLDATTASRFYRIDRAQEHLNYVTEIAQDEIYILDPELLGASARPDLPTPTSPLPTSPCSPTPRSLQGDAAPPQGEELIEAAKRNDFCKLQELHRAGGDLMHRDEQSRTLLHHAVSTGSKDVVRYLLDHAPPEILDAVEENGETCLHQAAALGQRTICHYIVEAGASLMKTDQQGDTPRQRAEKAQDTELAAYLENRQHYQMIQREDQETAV
DGKa, sequence (P23743 whole entry): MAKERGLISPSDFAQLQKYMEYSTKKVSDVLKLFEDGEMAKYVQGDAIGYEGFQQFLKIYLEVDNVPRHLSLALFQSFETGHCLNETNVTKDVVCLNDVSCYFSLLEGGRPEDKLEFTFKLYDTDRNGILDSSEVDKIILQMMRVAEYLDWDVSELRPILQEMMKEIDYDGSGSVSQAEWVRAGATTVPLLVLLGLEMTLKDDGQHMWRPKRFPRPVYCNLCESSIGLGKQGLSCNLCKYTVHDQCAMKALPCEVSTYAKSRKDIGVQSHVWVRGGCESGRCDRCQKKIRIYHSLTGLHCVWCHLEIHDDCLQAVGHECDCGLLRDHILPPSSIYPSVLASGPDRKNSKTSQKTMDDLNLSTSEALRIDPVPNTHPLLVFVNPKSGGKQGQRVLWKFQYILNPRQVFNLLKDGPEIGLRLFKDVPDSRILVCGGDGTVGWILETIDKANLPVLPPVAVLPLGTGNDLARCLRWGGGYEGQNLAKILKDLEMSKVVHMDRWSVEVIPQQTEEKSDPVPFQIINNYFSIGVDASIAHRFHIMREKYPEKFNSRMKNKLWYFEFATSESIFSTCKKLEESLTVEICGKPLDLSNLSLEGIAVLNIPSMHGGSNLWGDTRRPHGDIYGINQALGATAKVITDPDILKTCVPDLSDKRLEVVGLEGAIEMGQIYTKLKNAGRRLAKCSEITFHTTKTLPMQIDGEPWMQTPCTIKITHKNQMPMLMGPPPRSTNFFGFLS

| Structure (SMILES) | Tumor growth [1] | EC50 (Jurkat cells) | EC50 [2] | EC50 (PBMC) | CLint scaled at 1 μM [3] | half-life at 1 μM [3] | IC50 (DGKa) | Tumor inhibition activity [4] | IC50 (DGKz) |
| --- | --- | --- | --- | --- | --- | --- | --- | --- | --- |
| CC[C@@H]1CN2c3c(c(=O)n(C)c4ccc(C#N)nc34)OC[C@@H]2CN1[C@@H](CC)c1ccc(Cl)c(Cl)c1 (stereo in doubt) [Compound 250] | inhibit tumor growth | 0.032 µM | 0.144 µM | 0.016 µM | 0.738 L/h/kg | 2.37 h |  |  |  |
| CC[C@@H]1CN2c3c(c(=O)n(C)c4ccc(C#N)nc34)OC[C@@H]2CN1[C@@H](CC)c1ccc(C(F)(F)F)cc1 [Compound 67] |  | 0.049 µM | 0.102 µM | 0.04 µM | 0.45 L/h/kg | 3.88 h | 0.004 µM | significantly better tumor inhibition activity than either of the single agents | 0.016 µM |
